One assay deals with velvetleaf. As to the kind of experiment: Test A pre-/postemergence herbicide test. The class given is in vivo, Abutilon theophrasti. To be noted: for Velvetleaf plant response rating: Preemergence, visual rating on 0 to 100 scale (0 no effect, 100 complete control). In short, it runs like this:
(§1)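 Scoring was visual, relative to untreated controls, on a 0–100 scale after about 10 greenhouse days. Preemergence treatment used a directed soil spray over seeded loam/sand; postemergence treatment targeted one- to two-leaf plants of 2–10 cm.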

For the next assay, the system named is field poppy. As to the kind of experiment: Test D pre-/postemergence herbicide test. The class given is in vivo, Papaver rhoeas. The settings on record: for Plant response rating: Field Poppy, scale 0 to 100; for Plant response rating, Field Poppy: scale 0 to 100 (0 no effect, 100 complete control). The source says: Seeds of plant species selected from bluegrass (annual bluegrass, Poa annua), blackgrass (Alopecurus myosuroides), canarygrass (littleseed canarygrass, Phalaris minor), chickweed (common chickweed, Stellaria media), galium (catchweed bedstraw, Galium aparine), bromegrass, downy (downy bromegrass, Bromus tectorum), field poppy (Papaver rhoeas), field violet (Viola arvensis), foxtail, green (green foxtail, Setaria viridis), deadnettle (henbit deadnettle, Lamium amplexicaule), ryegrass, Italian (Italian ryegrass, Lolium multiflorum), kochia (Kochia scoparia), lambsquarters (Chenopodium album), oilseed rape (Brassica napus), pigweed (Amaranthus retroflexus), chamomile (scentless chamomile, Matricaria inodora), Russian thistle (Salsola kali), speedwell (bird's-eye speedwell, Veronica persica), barley, spring (spring barley, Hordeum vulgare), wheat, spring (spring wheat, Triticum aestivum), buckwheat, wild (wild buckwheat, Polygonum convolvulus), mustard, wild (wild mustard, Sinapis arvensis), oat, wild (wild oat, Avena fatua), radish, wild (wild radish, Raphanus raphanistrum), […]), barley, winter (winter barley, Hordeum vulgare), and wheat, winter (winter wheat, Triticum aestivum) were planted into a silt loam soil and treated preemergence with test chemicals formulated in a non-phytotoxic solvent mixture which included a surfactant. At the same time, these species were planted in pots containing Redi-Earth® planting medium (Scotts Company, 14111 Scottslawn Road, Marysville, Ohio 43041) comprising spaghnum peat moss, vermiculite, wetting agent and starter nutrients and treated with postemergence applications of the test chemicals formulated in the same manner. Plants ranged in height from 2 to 18 cm (1- to 4-leaf stage). Treated plants and controls were maintained in a controlled growth environment for 7 to 21 days after which time all species were compared to controls and visually evaluated. Plant response ratings, summarized in Table D, are based on a scale of 0 to 100 where 0 is no effect and 100 is complete control. A dash (-) response means no test result.

The subject of the next assay is surinam grass. In words: Test E preemergence herbicide test. Details: key: 0 = no effect, 100 = complete control. Type of assay: in vivo, Brachiaria decumbens. An excerpt: (§2) Seeds of plant species selected from corn (Zea mays), soybean (Glycine max), velvetleaf (Abutilon theophrasti), lambsquarters (Chenopodium album), wild poinsettia (Euphorbia heterophylla), pigweed, palmer (palmer pigweed, Amaranthus palmeri), waterhemp (common waterhemp, Amaranthus rudis), surinam grass (Brachiaria decumbens), crabgrass, large (large crabgrass, Digitaria sanguinalis), crabgrass, Brazil (Brazilian crabgrass, Digitaria horizontalis), panicum, fall (fall panicum, Panicum dichotomiflorum), foxtail, giant (giant foxtail, Setaria faberii), foxtail, green (green foxtail, Setaria viridis), goosegrass (Eleusine indica), johnsongrass (Sorghum halepense), ragweed (common ragweed, Ambrosia elatior), barnyardgrass (Echinochloa crus-galli), sandbur (southern sandbur, Cenchrus echinatus), arrowleaf […] rhombifolia), ryegrass, Italian (Italian ryegrass, Lolium multiflorum), dayflower, VA (Virginia dayflower, Commelina virginica), field bindweed (Convolvulus arvensis), morningglory (Ipomoea coccinea), nightshade (eastern black nightshade, Solanum ptycanthum), kochia (Kochia scoparia), nutsedge, yellow (yellow nutsedge, Cyperus esculentus), cocklebur (common cocklebur, Xanthium strumarium), smartweed (ladysthumb smartweed, Polygonum Persicaria) and beggarticks (hairy beggarticks, Bidens pilosa), were planted into a silt loam soil and treated preemergence with test chemicals formulated in a non-phytotoxic solvent mixture which included a surfactant. Treated plants and controls were maintained in a greenhouse for 21 days, after which time all species were compared to controls and visually evaluated. Plant response ratings, summarized in Table E, are based on a scale of 0 to 100 where 0 is no effect and 100 is complete control. A dash (-) response means no test result.

In another assay the test system is goosegrass. As to the kind of experiment: Test E preemergence herbicide test. Details: key: 0 = no effect, 100 = complete control. Type of assay: in vivo, Eleusine indica.
Excerpt: as §2

The next assay relates to ryegrass, Italian. As to the kind of experiment: Test A pre-/postemergence herbicide test. The class given is in vivo, Lolium multiflorum. In short, it runs like this: as §1
Setting [1] is: Postemergence, 500 g ai/ha, 0 to 100 scale (0 no effect, 100 complete control).
The mark [2] stands for this setting: preemergence, 500 g ai/ha, 0 to 100 scale.
[3] abbreviates: Postemergence, 125 g ai/ha, 0 to 100 scale, 0 no effect, 100 complete control.
Where [4] appears, read: 125 g ai/ha, visual rating, 0 to 100 scale, 0 no effect, 100 complete control, approximately 10 days, preemergence.
Setting [5] is: Postemergence, 125 g ai/ha, 0 to 100 scale, 0 is no effect, 100 is complete control.
Setting [6] is: preemergence, 500 g ai/ha, 0 to 100 scale, 0 is no effect and 100 is complete control.

The text below walks through data of patent publication US10294202B2, “Pyrrolidinones as herbicides” (FMC Corporation, priority 2013, dated 2019).

SMILES strings stand for the structures.

Consider `O=C1NCC(c2ccc(F)c(F)c2)C1C(=O)Nc1ccccc1C(F)(F)F` (racemic) [Compound 6], for which the “Plant response rating, Velvetleaf” value worked out at 10 in the assay with velvetleaf (setting [1]) and 0 with velvetleaf (setting [2]). Besides, in the assay on velvetleaf (125 g ai/ha), the “Velvetleaf plant response rating” value turned out to be 0. Moreover, the Plant response rating in the assay on field poppy (Postemergence, 16 g ai/ha) stood at 0; in the assay on field poppy (Postemergence, 31 g ai/ha), 0; in the assay on field poppy (Postemergence, 62 g ai/ha), 20; in the assay on field poppy (Postemergence, 125 g ai/ha), 20; in the assay with field poppy (Postemergence, 250 g ai/ha), 30; in the assay on field poppy (Preemergence, 125 g ai/ha), 0. The molecule also returned a Plant response rating in the assay on field poppy (Preemergence, 250 g ai/ha) of 100. For the same molecule, the “Plant response rating, Field Poppy” value with field poppy (Preemergence, 62 g ai/ha) was 0; in the assay with field poppy (Preemergence, 31 g ai/ha), 0.
In the case of `O=C1NCC(c2ccc(Cl)c(Cl)c2)C1C(=O)Nc1ccccc1F` (racemic) [Compound 14], the “Plant response rating, Velvetleaf” value in the assay with velvetleaf (setting [3]) turned out to be 0; in the assay on velvetleaf (setting [1]) it was 90; in the assay on velvetleaf (setting [2]), 0. In the assay with velvetleaf (125 g ai/ha), the “Velvetleaf plant response rating” value amounted to 0. Also, the “Plant response rating, Surinam Grass” value in the assay on surinam grass (16 g ai/ha) was 0; in the assay on surinam grass (31 g ai/ha), 0; with surinam grass (62 g ai/ha), 0; with surinam grass (125 g ai/ha) it was 20; in the assay on surinam grass (250 g ai/ha), 60. In addition, the “Plant response rating, Goosegrass” value in the assay on goosegrass (16 g ai/ha), with goosegrass (31 g ai/ha), in the assay on goosegrass (62 g ai/ha), in the assay on goosegrass (125 g ai/ha) and in the assay on goosegrass (250 g ai/ha) was 0 each time.
On to `O=C1NCC(c2ccc(F)c(C(F)(F)F)c2)C1C(=O)Nc1cccc(F)c1F` (racemic) [Compound 77], for which the “Plant response rating, Velvetleaf” value was found to be 20 in the assay on velvetleaf (setting [3]), 40 in the assay with velvetleaf (setting [1]) and 0 in the assay with velvetleaf (setting [2]). The “Velvetleaf plant response rating” value in the assay on velvetleaf (125 g ai/ha) is recorded as 0. Moreover, the “Plant response rating, Field Poppy” value in the assay with field poppy (Preemergence, 62 g ai/ha) was 90; with field poppy (Preemergence, 31 g ai/ha) it was 75. Further, the Plant response rating is reported as 95 in the assay on field poppy (Preemergence, 125 g ai/ha) and 100 in the assay on field poppy (Preemergence, 250 g ai/ha).
Turning to `O=C1NCC(c2ccc(C(F)(F)F)cc2)C1C(=O)Nc1cccc(F)c1F` (racemic) [Compound 202], the “Plant response rating, Ryegrass, Italian” value with ryegrass, Italian (setting [4]) is 60; in the assay on ryegrass, Italian (setting [5]), 30; in the assay with ryegrass, Italian (setting [6]), 60. Further, the “Ryegrass, Italian plant response rating (0 to 100 scale, 0 is no effect, 100 is complete control)” value with ryegrass, Italian (Postemergence, 500 g ai/ha) turned out to be 40. In addition, the Plant response rating was 0 with field poppy (Postemergence, 31 g ai/ha); 75 in the assay on field poppy (Postemergence, 62 g ai/ha); 100 in the assay on field poppy (Postemergence, 125 g ai/ha); 100 in the assay on field poppy (Postemergence, 250 g ai/ha); 90 with field poppy (Preemergence, 125 g ai/ha); 100 with field poppy (Preemergence, 250 g ai/ha). Further, the “Plant response rating, Field Poppy” value with field poppy (Preemergence, 62 g ai/ha) came to 85; in the assay with field poppy (Preemergence, 31 g ai/ha), 85. The “Plant response rating, Surinam Grass” value in the assay with surinam grass (31 g ai/ha) came to 20; in the assay on surinam grass (125 g ai/ha), 65; with surinam grass (250 g ai/ha), 95. The “Plant response rating, Goosegrass” value in the assay on goosegrass (31 g ai/ha) is 35; with goosegrass (62 g ai/ha), 70; with goosegrass (125 g ai/ha), 90; in the assay with goosegrass (250 g ai/ha), 98.
Regarding `O=C1NCC(c2ccc(OC(F)F)cc2)C1C(=O)Nc1cccc(F)c1F` (racemic) [Compound 350], the “Plant response rating, Ryegrass, Italian” value was 0 in the assay with ryegrass, Italian (Postemergence, 125 g ai/ha, visual rating on 0 to 100 scale (0 no effect, 100 complete control), approx. 10 days); 0 in the assay on ryegrass, Italian (Preemergence, 125 g ai/ha, 0 to 100 scale where 0 is no effect and 100 is complete control). In addition, the “Ryegrass, Italian plant response rating” value with ryegrass, Italian (Preemergence, 500 g ai/ha, visual rating on 0 to 100 scale (0 no effect, 100 complete control)) was 0. Besides, the “Plant response rating, Surinam Grass” value in the assay with surinam grass (31 g ai/ha) is 0; in the assay with surinam grass (62 g ai/ha) it was 0; in the assay with surinam grass (125 g ai/ha), 50; in the assay with surinam grass (250 g ai/ha) it was 65. Further, the “Plant response rating, Goosegrass” value worked out at 0 in the assay with goosegrass (31 g ai/ha), 0 with goosegrass (62 g ai/ha), 0 in the assay on goosegrass (125 g ai/ha) and 25 with goosegrass (250 g ai/ha).
On to `O=C1NCC(c2cc(F)c(F)cc2F)C1C(=O)Nc1cccc(F)c1F` (centres unmarked) [Compound 50], for which the “Plant response rating, Velvetleaf” value with velvetleaf (setting [3]), with velvetleaf (setting [1]) and with velvetleaf (setting [2]) was 0 each time. Moreover, the “Velvetleaf plant response rating” value with velvetleaf (125 g ai/ha) is reported as 0. Besides, the Plant response rating in the assay with field poppy (Postemergence, 16 g ai/ha) is given as 0; in the assay on field poppy (Postemergence, 31 g ai/ha), 0; in the assay with field poppy (Postemergence, 62 g ai/ha) it was 0; in the assay on field poppy (Postemergence, 125 g ai/ha), 0; with field poppy (Preemergence, 125 g ai/ha) it was 65. For the same molecule, the “Plant response rating, Field Poppy” value in the assay on field poppy (Preemergence, 62 g ai/ha) is recorded as 0; in the assay with field poppy (Preemergence, 16 g ai/ha) it was 0; with field poppy (Preemergence, 31 g ai/ha), 50.
In the case of `O=C1NCC(c2ccc(Cl)c(F)c2)C1C(=O)Nc1cccc(F)c1F` (centres unmarked) [Compound 52], the “Plant response rating, Velvetleaf” value in the assay with velvetleaf (setting [3]) amounted to 0; in the assay on velvetleaf (setting [1]), 0; in the assay on velvetleaf (setting [2]) it was 20. Also, the “Velvetleaf plant response rating” value in the assay with velvetleaf (125 g ai/ha) is 0. Besides, the Plant response rating is listed as 0 in the assay with field poppy (Postemergence, 16 g ai/ha); 0 in the assay with field poppy (Postemergence, 31 g ai/ha); 0 in the assay with field poppy (Postemergence, 62 g ai/ha); 0 in the assay with field poppy (Postemergence, 125 g ai/ha); 0 with field poppy (Postemergence, 250 g ai/ha); 80 in the assay on field poppy (Preemergence, 250 g ai/ha). In addition, the “Plant response rating, Field Poppy” value with field poppy (Preemergence, 62 g ai/ha) is on record as 50; in the assay with field poppy (Preemergence, 16 g ai/ha) it was 30; with field poppy (Preemergence, 31 g ai/ha), 50.
On to `O=C1NCC(c2ccc(C(F)(F)F)cc2)C1C(=O)Nc1ccccc1F` (centres unmarked) [Compound 231], for which the “Plant response rating, Ryegrass, Italian” value was 40 with ryegrass, Italian (setting [4]); 20 in the assay on ryegrass, Italian (setting [5]); 60 in the assay with ryegrass, Italian (setting [6]). In addition, in the assay on ryegrass, Italian (Postemergence, 500 g ai/ha), the “Ryegrass, Italian plant response rating (0 to 100 scale, 0 is no effect, 100 is complete control)” value is 40. In addition, the Plant response rating in the assay on field poppy (Postemergence, 31 g ai/ha) is reported as 0; in the assay with field poppy (Postemergence, 62 g ai/ha) it was 20; with field poppy (Postemergence, 125 g ai/ha) it was 0; in the assay with field poppy (Postemergence, 250 g ai/ha), 50; with field poppy (Preemergence, 250 g ai/ha), 95. In addition, the “Plant response rating, Field Poppy” value was 80 in the assay on field poppy (Preemergence, 62 g ai/ha); 100 with field poppy (Preemergence, 125 g ai/ha); 80 with field poppy (Preemergence, 31 g ai/ha).
